Assay results reported in US20230265151A1, “GIP/GLP1 CO-AGONIST COMPOUNDS” (priority 2020, published 2023).
Read-outs that look alike come from different tables or passages of the source. *1 amine or outer side, *2 acyl side, *3 side chain or, on linkers, in order; H or OH if unused. Where a SMILES comes first, the peptide text is derived from it. Side-chain parts run from the residue outwards. [ ]: non-standard residue; d: D form. The star is where a group is joined. αMePhe(2-F) = C[C@](N)(Cc1ccccc1F)C(=O)O; γGlu = O=C(O)[C@H](CCC(=O)[*:2])N[*:1]; C14 diacid = O=C(O)CCCCCCCCCCCCC(=O)*; αMeY = C[C@](N)(Cc1ccc(O)cc1)C(=O)O; 4Pal = N[C@@H](Cc1ccncc1)C(=O)O; αMeL = CC(C)C[C@](C)(N)C(=O)O; Orn = NCCC[C@H](N)C(=O)O; AEEA = NCCOCCOCC(=O)O; Aib = CC(C)(N)C(=O)O

What was measured:
Assay type in all cases: cell-based
[1] = target: T1, hGIPR (Homo sapiens, UniProt P48546); assay: Functional cAMP formation (HTRF) in HEK-293 clonal cells expressing hGIPR, 0.1% bovine casein, without or with 1.0% human serum albumin; settings: for Emax: 37° C., read-out: hGIPR Emax, % ± SEM; for EC50: cAMP, incubated at 37° C., 0.1% bovine casein (no human serum albumin), geometric mean, read-out: hGIPR EC50, nM (SEM, n)
T1 construct: expressed in transfected cells
T1 sequence (P48546 22-466): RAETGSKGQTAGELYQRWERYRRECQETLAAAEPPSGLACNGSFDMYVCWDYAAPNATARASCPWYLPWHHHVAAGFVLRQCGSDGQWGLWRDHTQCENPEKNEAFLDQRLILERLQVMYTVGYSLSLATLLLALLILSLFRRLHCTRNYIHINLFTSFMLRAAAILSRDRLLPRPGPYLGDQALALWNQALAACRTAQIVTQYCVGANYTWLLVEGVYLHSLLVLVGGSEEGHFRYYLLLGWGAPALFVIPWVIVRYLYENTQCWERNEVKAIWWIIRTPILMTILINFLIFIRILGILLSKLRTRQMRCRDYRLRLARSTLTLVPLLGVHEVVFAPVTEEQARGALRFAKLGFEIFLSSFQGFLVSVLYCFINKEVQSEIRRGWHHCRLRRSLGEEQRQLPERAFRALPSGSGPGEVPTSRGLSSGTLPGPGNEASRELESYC
Method in brief: (§1)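 Readings of the HTRF 665/620 nm ratio, which falls as cAMP rises, were converted to nM cAMP using a standard curve after 30 min peptide exposure at 37° C.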

[2] = target: T2, hGCGR (Homo sapiens, UniProt P47871); assay: Functional cAMP formation (HTRF) in HEK-293 clonal cells expressing hGCGR, 0.1% bovine casein, without or with 1.0% human serum albumin; settings: geometric mean, read-out: hGCGR EC50, nM (SEM, n)
T2 construct: expressed in transfected cells
Method in brief: as §1

[3] = target: hGLP-1R (Homo sapiens, UniProt P43220); assay: Functional cAMP formation (HTRF) in HEK-293 clonal cells expressing hGLP-1R, 0.1% bovine casein, without or with 1.0% human serum albumin; design: expressed in transfected cells; settings: for Emax: read-out: hGLP-1R Emax, % ± SEM; for EC50: geometric mean, read-out: hGLP-1R EC50, nM (SEM, n)
Method in brief: as §1

[4] = HEK293, 0.1% bovine casein and 1.0% human serum albumin, percent of maximal response to GIP(1-42)NH2
[5] = 0.1% bovine casein and 1.0% human serum albumin, 37° C.
[6] = cAMP, incubated at 37° C., 0.1% bovine casein (no human serum albumin)
[7] = HEK293, 0.1% bovine casein and 1.0% human serum albumin, 37° C., percent of maximal response to GLP-1(7-36)NH2
[8] = HEK293, percent of maximal response to GLP-1(7-36)NH2, 37° C., 0.1% bovine casein, arithmetic mean
[9] = HEK293, percent of maximal response to GIP(1-42)NH2, 0.1% bovine casein, arithmetic mean

T2 sequence (P47871 26-477): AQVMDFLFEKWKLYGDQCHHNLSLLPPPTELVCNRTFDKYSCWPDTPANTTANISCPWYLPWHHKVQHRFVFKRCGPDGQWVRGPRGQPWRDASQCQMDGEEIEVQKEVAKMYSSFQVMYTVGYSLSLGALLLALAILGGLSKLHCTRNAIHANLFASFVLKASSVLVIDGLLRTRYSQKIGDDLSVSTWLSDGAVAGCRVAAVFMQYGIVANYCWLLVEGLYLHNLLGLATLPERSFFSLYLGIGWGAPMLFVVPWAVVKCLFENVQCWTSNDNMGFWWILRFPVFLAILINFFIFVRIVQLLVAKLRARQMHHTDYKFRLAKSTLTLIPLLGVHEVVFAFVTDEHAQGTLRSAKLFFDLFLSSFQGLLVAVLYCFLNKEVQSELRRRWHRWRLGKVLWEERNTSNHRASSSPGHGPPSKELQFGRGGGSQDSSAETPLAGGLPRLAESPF
Sequence of hGLP-1R (P43220 24-463): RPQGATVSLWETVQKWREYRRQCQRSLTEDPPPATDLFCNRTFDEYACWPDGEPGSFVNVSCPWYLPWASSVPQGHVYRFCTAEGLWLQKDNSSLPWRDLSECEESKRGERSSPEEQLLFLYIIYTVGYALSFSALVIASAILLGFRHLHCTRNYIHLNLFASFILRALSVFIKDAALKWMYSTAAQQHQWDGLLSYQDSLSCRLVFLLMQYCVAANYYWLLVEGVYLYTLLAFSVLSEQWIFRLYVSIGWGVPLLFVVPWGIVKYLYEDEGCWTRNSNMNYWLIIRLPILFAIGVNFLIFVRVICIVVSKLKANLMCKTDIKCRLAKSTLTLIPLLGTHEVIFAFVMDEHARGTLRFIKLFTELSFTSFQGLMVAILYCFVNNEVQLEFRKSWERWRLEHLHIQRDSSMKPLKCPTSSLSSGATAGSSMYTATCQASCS

Row | SMILES | Emax [1, 4] | EC50 [2, 5] | EC50 [2, 6] | Emax [3, 7] | Emax [3, 8] | EC50 [3, 6] | Emax [1, 9] | EC50 [1] | EC50 [3, 5]
1 | CC[C@H](C)[C@H](NC(=O)CNC(=O)[C@H](Cc1ccncc1)NC(=O)[C@H](CC(=O)O)NC(=O)[C@H](CO)NC(=O)[C@@H](NC(=O)[C@](C)(Cc1ccccc1F)NC(=O)[C@@H](NC(=O)CNC(=O)[C@H](CCC(=O)O)NC(=O)C(C)(C)NC(=O)[C@@H](N)Cc1ccc(O)cc1)[C@@H](C)O)[C@@H](C)O)C(=O)N[C@@](C)(CC(C)C)C(=O)N[C@@H](CC(C)C)C(=O)N[C@@H](CC(=O)O)C(=O)N[C@@H](CCCN)C(=O)N[C@@H](CCCCNC(=O)COCCOCCNC(=O)COCCOCCNC(=O)CC[C@H](NC(=O)CCCCCCCCCCCCC(=O)O)C(=O)O)C(=O)N[C@@H](C)C(=O)N[C@@H](CCC(N)=O)C(=O)NC(C)(C)C(=O)N[C@@H](CCC(=O)O)C(=O)N[C@@H](Cc1ccccc1)C(=O)N[C@H](C(=O)N[C@H](CCC(=O)O)C(=O)N[C@@](C)(Cc1ccc(O)cc1)C(=O)N[C@@H](CC(C)C)C(=O)N[C@H](C(=O)N[C@@H](CCC(=O)O)C(=O)NCC(=O)NCC(=O)N[C@@H](CCCCNC(=O)COCCOCCNC(=O)COCCOCCNC(=O)CC[C@H](NC(=O)CCCCCCCCCCCCC(=O)O)C(=O)O)C(=O)N[C@@H](CO)C(=O)N[C@@H](CO)C(=O)NCC(=O)N[C@@H](C)C(=O)N1CCC[C@H]1C(=O)N1CCC[C@H]1C(=O)N1CCC[C@H]1C(=O)N[C@@H](CO)C(N)=O)[C@@H](C)CC)[C@@H](C)CC [Example 100] (H-Y[Aib]EGT[αMePhe(2-F)]TSD[4Pal]GI[αMeL]LD[Orn]K([AEEA-AEEA-γGlu-C14 diacid])AQ[Aib]EFI[dE][αMeY]LIEGGK([AEEA-AEEA-γGlu-C14 diacid])SSGAPPPS-NH2; N-terminus assumed) | 98.3% | > 9950 nM | > 9950 nM | 123% | 111% | 11.4 nM | – | – | –
2 | CC[C@H](C)[C@H](NC(=O)[C@H](CC(C)C)NC(=O)[C@](C)(Cc1ccc(O)cc1)NC(=O)[C@@H](CCC(=O)O)NC(=O)[C@@H](NC(=O)[C@H](Cc1ccccc1)NC(=O)[C@H](CCC(=O)O)NC(=O)C(C)(C)NC(=O)[C@H](CCC(N)=O)NC(=O)CNC(=O)[C@H](CCCCNC(=O)COCCOCCNC(=O)COCCOCCNC(=O)CC[C@H](NC(=O)CCCCCCCCCCCCC(=O)O)C(=O)O)NC(=O)[C@H](CCCN)NC(=O)[C@H](CC(=O)O)NC(=O)[C@H](CC(C)C)NC(=O)[C@](C)(CC(C)C)NC(=O)[C@@H](NC(=O)[C@H](CO)NC(=O)[C@H](Cc1ccncc1)NC(=O)[C@H](CC(=O)O)NC(=O)[C@H](CO)NC(=O)[C@@H](NC(=O)[C@](C)(Cc1ccccc1F)NC(=O)[C@@H](NC(=O)CNC(=O)[C@H](CCC(=O)O)NC(=O)C(C)(C)NC(=O)[C@@H](N)Cc1ccc(O)cc1)[C@@H](C)O)[C@@H](C)O)[C@@H](C)CC)[C@@H](C)CC)C(=O)N[C@@H](CCC(=O)O)C(=O)NCC(=O)NCC(=O)N[C@@H](CCCCNC(=O)COCCOCCNC(=O)COCCOCCNC(=O)CC[C@H](NC(=O)CCCCCCCCCCCCC(=O)O)C(=O)O)C(=O)N[C@@H](CO)C(=O)N[C@@H](CO)C(=O)NCC(=O)N[C@@H](C)C(=O)N1CCC[C@H]1C(=O)N1CCC[C@H]1C(=O)N1CCC[C@H]1C(=O)N[C@@H](CO)C(N)=O [Example 102] | 96.9% | > 9950 nM | > 9950 nM | – | – | 19.1 nM | – | – | –
3 | CC[C@H](C)[C@H](NC(=O)[C@H](CC(C)C)NC(=O)[C@](C)(Cc1ccc(O)cc1)NC(=O)[C@@H](CCC(=O)O)NC(=O)[C@@H](NC(=O)[C@H](Cc1ccccc1)NC(=O)CNC(=O)C(C)(C)NC(=O)[C@H](CCC(N)=O)NC(=O)[C@H](C)NC(=O)[C@H](CCCCNC(=O)COCCOCCNC(=O)COCCOCCNC(=O)CC[C@H](NC(=O)CCCCCCCCCCCCC(=O)O)C(=O)O)NC(=O)[C@H](CCCN)NC(=O)[C@H](CC(=O)O)NC(=O)[C@H](CC(C)C)NC(=O)[C@](C)(CC(C)C)NC(=O)[C@@H](NC(=O)[C@H](CO)NC(=O)[C@H](Cc1ccncc1)NC(=O)[C@H](CC(=O)O)NC(=O)[C@H](CO)NC(=O)[C@@H](NC(=O)[C@](C)(Cc1ccccc1F)NC(=O)[C@@H](NC(=O)CNC(=O)[C@H](CCC(=O)O)NC(=O)C(C)(C)NC(=O)[C@@H](N)Cc1ccc(O)cc1)[C@@H](C)O)[C@@H](C)O)[C@@H](C)CC)[C@@H](C)CC)C(=O)N[C@@H](CCC(=O)O)C(=O)NCC(=O)NCC(=O)N[C@@H](CCCCNC(=O)COCCOCCNC(=O)COCCOCCNC(=O)CC[C@H](NC(=O)CCCCCCCCCCCCC(=O)O)C(=O)O)C(=O)N[C@@H](CO)C(=O)N[C@@H](CO)C(=O)NCC(=O)N[C@@H](C)C(=O)N1CCC[C@H]1C(=O)N1CCC[C@H]1C(=O)N1CCC[C@H]1C(=O)N[C@@H](CO)C(N)=O [Example 103] | 94.2% | > 9950 nM | > 9950 nM | 96.9% | – | 2.1 nM | 92.8% | 0.0305 nM | –
4 | CC[C@H](C)[C@H](NC(=O)[C@H](Cc1ccccc1)NC(=O)[C@H](CCC(=O)O)NC(=O)C(C)(C)NC(=O)[C@H](CCC(N)=O)NC(=O)[C@H](C)NC(=O)[C@H](CCCCNC(=O)COCCOCCNC(=O)COCCOCCNC(=O)CC[C@H](NC(=O)CCCCCCCCCCCCC(=O)O)C(=O)O)NC(=O)[C@H](CCCN)NC(=O)[C@H](CC(=O)O)NC(=O)[C@H](CC(C)C)NC(=O)[C@](C)(CC(C)C)NC(=O)[C@@H](NC(=O)[C@H](CO)NC(=O)[C@H](Cc1ccncc1)NC(=O)[C@H](CC(=O)O)NC(=O)[C@H](CO)NC(=O)[C@@H](NC(=O)[C@](C)(Cc1ccccc1F)NC(=O)[C@@H](NC(=O)CNC(=O)[C@H](CCC(=O)O)NC(=O)C(C)(C)NC(=O)[C@@H](N)Cc1ccc(O)cc1)[C@@H](C)O)[C@@H](C)O)[C@@H](C)CC)C(=O)NCC(=O)N[C@@](C)(Cc1ccc(O)cc1)C(=O)N[C@@H](CC(C)C)C(=O)N[C@H](C(=O)N[C@@H](CCC(=O)O)C(=O)NCC(=O)NCC(=O)N[C@@H](CCCCNC(=O)COCCOCCNC(=O)COCCOCCNC(=O)CC[C@H](NC(=O)CCCCCCCCCCCCC(=O)O)C(=O)O)C(=O)N[C@@H](CO)C(=O)N[C@@H](CO)C(=O)NCC(=O)N[C@@H](C)C(=O)N1CCC[C@H]1C(=O)N1CCC[C@H]1C(=O)N1CCC[C@H]1C(=O)N[C@@H](CO)C(N)=O)[C@@H](C)CC [Example 104] | 95.9% | > 9950 nM | > 9950 nM | 95.8% | – | – | 94.9% | 0.0361 nM | 12.3 nM
5 | CC[C@H](C)[C@H](NC(=O)[C@H](CCCN)NC(=O)[C@H](CC(=O)O)NC(=O)[C@H](CC(C)C)NC(=O)[C@](C)(CC(C)C)NC(=O)[C@@H](NC(=O)[C@H](CO)NC(=O)[C@H](CCCCNC(=O)COCCOCCNC(=O)COCCOCCNC(=O)CC[C@H](NC(=O)CCCCCCCCCCCCC(=O)O)C(=O)O)NC(=O)[C@H](CC(=O)O)NC(=O)[C@H](CO)NC(=O)[C@@H](NC(=O)[C@](C)(Cc1ccccc1F)NC(=O)[C@@H](NC(=O)CNC(=O)[C@H](CCC(=O)O)NC(=O)C(C)(C)NC(=O)[C@@H](N)Cc1ccc(O)cc1)[C@@H](C)O)[C@@H](C)O)[C@@H](C)CC)C(=O)N[C@@H](C)C(=O)N[C@@H](CCC(N)=O)C(=O)NC(C)(C)C(=O)N[C@@H](CCC(=O)O)C(=O)N[C@@H](Cc1ccccc1)C(=O)N[C@H](C(=O)N[C@H](CCC(=O)O)C(=O)N[C@@](C)(Cc1ccc(O)cc1)C(=O)N[C@@H](CC(C)C)C(=O)N[C@H](C(=O)N[C@@H](CCCCNC(=O)COCCOCCNC(=O)COCCOCCNC(=O)CC[C@H](NC(=O)CCCCCCCCCCCCC(=O)O)C(=O)O)C(=O)NCC(=O)NCC(=O)N1CCC[C@H]1C(=O)N[C@@H](CO)C(=O)N[C@@H](CO)C(=O)NCC(=O)N[C@@H](C)C(=O)N1CCC[C@H]1C(=O)N1CCC[C@H]1C(=O)N1CCC[C@H]1C(=O)N[C@@H](CO)C(N)=O)[C@@H](C)CC)[C@@H](C)CC [Example 107] (H-Y[Aib]EGT[αMePhe(2-F)]TSDK([AEEA-AEEA-γGlu-C14 diacid])SI[αMeL]LD[Orn]IAQ[Aib]EFI[dE][αMeY]LIK([AEEA-AEEA-γGlu-C14 diacid])GGPSSGAPPPS-NH2) | – | – | > 9950 nM | – | 93.4% | – | 94.3% | 0.0473 nM | –
